Among the data in US9670255B2 (priority 2013, dated 2017) are Kd values, retold here.

Assay [1] concerns the target LISA314 WT. Briefly: Affinity analysis by SPR (Biacore assay), LISA314 WT. The class given is binding, Streptomyces avidinii. The note with it: SPR Biacore T100, protein immobilized on Sensor Chip NTA, equilibrium value analysis, read-out: Dissociation constant: KD. The method, then: (§1) For affinity analysis, Biacore T100 was used. Specifically, the protein that had been fractionated by gel filtration chromatography was immobilized using Sensor Chip NTA. As a running buffer, 0.5% Tween20, HBS-P+ was used. Immobilization of the protein on nickel NTA and ligand capture were carried out according to the template program included therewith.
(§2) The amount of a ligand immobilized on a sensor chip was adjusted within the range of 1608 RU to 8042 RU, so as to suppress mass transport limitation. As analytes, biocytin and Compound 29 (the structure thereof is shown below) synthesized in Example 1 were used. It is to be noted that biocytin is a main existence form of biotin.
(§3) With regard to the concentrations of the analytes, in the case of biocytin, eight 2-fold dilution series were prepared from 1 μM, and in the case of Compound 29, twelve 2-fold dilution series were prepared from 16 μM. The measurement was carried out at a flow rate of 30 μl/min, for a contact time of 120 seconds, and for a dissociation time of 600 seconds. For the analysis of the data, sensorgrams for all concentrations were incorporated into analysis software, the equilibrium value analysis was then carried out, and the dissociation constant KD was then calculated.

Assay [2] deals with LISA314 V21 (Streptomyces avidinii, UniProt P22629, E125D/E140N/N47D/R108K/R127K/S51D/Y107S/Y46S). Kind of assay: Affinity analysis by SPR (Biacore assay), LISA314 V21. The class given is binding. Particulars: SPR Biacore T100, protein immobilized on Sensor Chip NTA, equilibrium value analysis, read-out: Dissociation constant: KD. How it is done: as §1, §2, §3
LISA314 V21, sequence (P22629 25-183 Y46S/N47D/S51D/Y107S/R108K/E125D/R127K/E140N limits assumed): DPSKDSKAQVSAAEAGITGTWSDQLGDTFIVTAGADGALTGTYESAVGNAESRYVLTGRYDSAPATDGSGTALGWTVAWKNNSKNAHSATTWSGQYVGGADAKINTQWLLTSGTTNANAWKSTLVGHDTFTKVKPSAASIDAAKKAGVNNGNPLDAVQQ

For the compound `N[C@@H](CCCCNC(=O)CCCC[C@@H]1SC[C@@H]2NC(=O)N[C@@H]21)C(=O)O` [Biocytin, biocytin], the results for the Kd in assay [1] and in assay [2] were 0.00238 µM and 0.348 µM, respectively.
